{"source": "patent US5137871A", "about": "“Treatment to reduce edema for brain and musculature injuries” (Regents of the University of California, priority 1989, dated 1992)", "key": {"blood pressure": {"tested_on": "blood pressure", "conditions": "reported in prior art; cited from earlier work"}, "ACTH secretion": {"tested_on": "ACTH secretion", "conditions": "reported in prior art; cited from earlier work"}, "[1]": {"tested_on": "brain vascular permeability after cold injury", "assay": "Cold (freeze) injury to brain, vascular leakage by Monastral blue staining", "assay_type": "in vivo, rat", "text": "An in vivo model of injury to study brain edema has been developed as a reproducible edema model, which has the features of immediate cortical damage followed by the subsequent development of brain edema. This model is described by Chan et al., Brain Research 277, pp. 329-337 (1983). The model uses rats which are anesthetized. A 2.5 cm incision is made over the sagittal suture and the bone of the right hemisphere exposed. A 60 mm^2 plate attached to a brass cup filled with dry ice-acetone mixture, with a temperature of -50° C., is applied to the rat skull for one minute. The animals are sacrificed at various intervals after the onset of cold-injury. A dye is administered intravenously before the freezing. Cortical slices are then obtained of the brain.\n16 male rats were randomly divided into eight pairs and one rat in each pair received either saline or CRF (subcutaneously twice at 30 μg/kg, 30 min and 10 min before cold injury). The animals were anesthetized with sodium pentobarbital, 60 mg/kg intraperitoneally, and injected with Monastral blue, 60 mg/kg intravenously. A cold probe was applied onto the skull for […] and the brains taken out 1 hour after cold injury. The staining of brain tissues with Monastral blue, a colloidal pigment that gets trapped between the albuminal surface of the endothelial cell and the basement membrane, was proportional to the degree of vascular leakage. The results from the first pair are shown as FIG. 1.\nThe size of the lesion, measured as area in mm^2, and the degree of staining intensity, were quantified using an image-analysis software program called JAVA (Jandel Corporation, San Rafael, Calif.). The stain intensity, given in arbitrary units, was internally calibrated using Monastral blue solutions (1-30 mg/ml) placed on white filter paper. Values are mean ± S.E.M."}, "[2]": {"tested_on": "brain edema after freeze injury", "assay": "Freeze injury to cerebral cortex, brain water and sodium content (brain edema)", "assay_type": "in vivo, rat", "conditions": "CRF 30 μg/kg s.c. 2×, tissues 3 hr after injury, ± S.E.M., N = 5", "procedure": "In a second set of experiments, the brain surface, namely the cerebral cortex, was injured by freezing and the water and sodium content were measured in the cerebral cortex and in the basal ganglia, a part of the brain away from the freeze zone. The water and sodium content of the brain tissue served as an index of brain edema. After freeze injury, the water and sodium content of the cerebral cortex were evaluated relative to non-frozen tissues. CRF administered in two separate doses of 30 μg/kg subcutaneously, one dose 15 min. before the injury and the second dose 90 min. after the first dose, inhibited the two indices of brain edema.\nMale SpragueDawley rats, 300-325 g, anesthetized with\nketamineacepromazine, were injected saline or CRF (30 μg/kg s.c.\n2×) and injury to cerebral cortex was produced by applying a cold\nprobe to the skull for 1 min. Brain tissues were obtained 3 hr later and\nanalyzed for water and sodium content."}, "edema of rat pawskin": {"tested_on": "edema of rat pawskin", "conditions": "mediators injected into the rat pawskin; previously shown; cited from earlier work"}, "[3]": {"tested_on": "muscle vascular permeability after celiotomy", "assay": "Vascular leakage after celiotomy (4 cm midline incision through abdominal muscle wall), Monastral blue", "assay_type": "in vivo, rat", "conditions": "for Area / Intensity / Lesion Size: tissues taken 0.5 hr after surgery; for vascular leakage (lesion size) relative to that of the saline-treated group: Table III", "procedure": "Experiments were conducted on male Sprague-Dawley rats 243±15 gm (S.D., Simonsen Labs., Gilroy, Calif.) anesthetized with sodium pentobarbital, 60 mg/kg i.p. Monastral blue, 60 mg/kg i.v., was injected 0.2 ml/100 g, 3 min. before a 4 cm midline incision through the abdominal muscle wall (celiotomy). Saline or CRF was administered to randomized pairs with N=8 rats per group. The size of the lesion, measured as area in mm^2, and its light intensity, were quantified using the JAVA image-analysis software program. The light intensity, given in arbitrary units, was internally calibrated using Monastral blue solutions (1-30 mg/ml) placed on white filter paper. Values are mean ± S.E.M. FIG. 2 illustrates the respective amount of vascular permeability for one pair of rats (control and treated). Tables III and IV set out data from these experiments.\nCRF: injected at various doses subcutaneously 30 min\nbefore a 4 cm midline incision, tissues taken 0.5 hr\nCRF: 30 μg/kg s.c. injected 2 hr before a 4 cm midline\nincision, tissues taken 0.5 hr after surgery"}, "[4]": {"tested_on": "PAF-acether induced vascular leakage in muscle", "assay": "Vascular leakage produced by PAF-acether injected subcutaneously into the abdomen", "assay_type": "in vivo, rat", "procedure": "CRF: 30 μg/kg s.c. injected 30 min before subcutaneous\ninjection of PAF-acether (1 μg/0.1 ml/rat) into the\nabdomen; muscle removed 0.5 hr later."}, "[5]": {"conditions": "rat, CRF 30 μg/kg s.c. twice, 30 min and 10 min before cold injury, brains taken 1 hour after injury, mean ± S.E.M."}, "[6]": {"conditions": "CRF 15 μg/kg s.c. 30 min before incision"}, "[7]": {"conditions": "CRF 30 μg/kg s.c. 30 min before incision"}, "[8]": {"conditions": "CRF 30 μg/kg s.c. 2 hr before incision"}, "[9]": {"conditions": "CRF 60 μg/kg s.c. 30 min before incision"}, "[10]": {"conditions": "CRF 30 μg/kg s.c. 30 min before PAF-acether 1 μg/0.1 ml/rat s.c., muscle removed 0.5 hr later"}}, "note": "No end group written: not given here."}
{"compound": "CC[C@H](C)[C@H](NC(=O)[C@@H](NC(=O)[C@H](CC(=O)O)NC(=O)[C@H](CC(C)C)NC(=O)[C@H](CC(C)C)NC(=O)[C@H](CC(C)C)NC(=O)[C@H](CCCNC(=N)N)NC(=O)[C@H](CC(N)=O)NC(=O)[C@H](CC(N)=O)NC(=O)[C@H](C)NC(=O)[C@H](C)NC(=O)[C@H](CCC(N)=O)NC(=O)[C@H](CCC(N)=O)NC(=O)[C@H](CCCCN)NC(=O)[C@H](CCC(=O)O)NC(=O)[C@H](CCCCN)NC(=O)[C@H](CCC(=O)O)NC(=O)[C@H](CCC(N)=O)NC(=O)[C@H](CCCCN)NC(=O)[C@H](CCC(=O)O)NC(=O)[C@@H](NC(=O)[C@H](CCC(=O)O)NC(=O)[C@@H](NC(=O)[C@H](CCSC)NC(=O)[C@H](CCCCN)NC(=O)[C@H](CCCNC(=N)N)NC(=O)[C@H](CC(C)C)NC(=O)[C@H](CC(C)C)NC(=O)[C@H](CCC(=O)O)NC(=O)[C@H](CC(C)C)NC(=O)[C@H](CO)NC(=O)[C@H](CC(C)C)NC(=O)[C@H](CC(=O)O)NC(=O)[C@@H](NC(=O)[C@H](CO)NC(=O)[C@@H](NC(=O)[C@@H]1CCCN1C(=O)[C@@H]1CCCN1C(=O)CNC(=O)[C@@H]1CCC(=O)N1)[C@@H](C)CC)[C@@H](C)CC)[C@@H](C)CC)[C@@H](C)CC)[C@@H](C)O)C(N)=O", "note": "[Sauvagine]", "values": [{"measurement": "effect on blood pressure", "setting": "blood pressure", "value": "lowering blood pressure"}, {"measurement": "effect on ACTH secretion", "setting": "ACTH secretion", "value": "stimulating the secretion of ACTH"}]}
{"compound": "H-Asn-Asp-Asp-Pro-Pro-Ile-Ser-Ile-Asp-Leu-Thr-Phe-His-Leu-Leu-Arg-Asn-Met-Ile-Glu-Met-Ala-Arg-Asn-Glu-Asn-Gln-Arg-Glu-Gln-Ala-Gly-Leu-Asn-Arg-Lys-Tyr- Leu-Asp-Glu-Val-NH2 (H-NDDPPISIDLTFHLLRNMIEMARNENQREQAGLNRKYLDEV-NH2) [carp urotensin]", "values": [{"measurement": "effect on blood pressure", "setting": "blood pressure", "value": "lower blood pressure"}, {"measurement": "effect on ACTH secretion", "setting": "ACTH secretion", "value": "stimulate ACTH"}]}
{"compound": "Ser-Gln-Glu-Pro-Pro-Ile-Ser-Leu-Asp-Leu-Thr-Phe-His-Leu-Leu-Arg-Glu-Val-Leu-Glu-Met-Thr-Lys-Ala-Asp-Gln-Leu-Ala-Gln-Gln-Ala-His-Ser-Asn-Arg-Lys-Leu-Leu-Asp-Ile-Ala-NH2 (SQEPPISLDLTFHLLREVLEMTKADQLAQQAHSNRKLLDIA-NH2) [oCRF]", "values": [{"measurement": "effect on blood pressure", "setting": "blood pressure", "value": "lower blood pressure"}]}
{"compound": "Ser-Glu-Glu-Pro-Pro-Ile-Ser-Leu-Asp-Leu-Thr-Phe-His-Leu-Leu-Arg-Glu-Val-Leu-Glu-Met-Ala-Arg-Ala-Glu-Gln-Leu-Ala-Gln-Gln-Ala-His-Ser-Asn-Arg-Lys-Leu-Met-Glu-Ile-Ile-NH^2 (SEEPPISLDLTFHLLREVLEMARAEQLAQQAHSNRKLMEII-NH2) [CRF, 41 amino acid neuropeptide]", "values": [{"measurement": "lesion size relative to that of the saline-treated group", "setting": "[1]; Table I, brain cold injury, CRF 30 μg/kg s.c. twice", "value": 44, "unit": "%"}, {"measurement": "correct assignment of brains to saline or CRF group by an observer unaware of pretreatment", "setting": "[1]; eight pairs of rats, more damaged vs less damaged brain", "value": "8 out of 8"}, {"measurement": "Area", "setting": "[1]; [5]", "value": "20.8 ± 1.2", "unit": "mm^2"}, {"measurement": "Intensity (staining intensity)", "setting": "[1]; [5]", "value": "2.0 ± 0.05", "unit": "arbitrary units"}, {"measurement": "Lesion Size", "setting": "[1]; [5]", "value": "43 ± 3"}, {"measurement": "SODIUM", "setting": "[2]; BASAL GANGLIA (non-injured)", "value": "215 ± 9", "unit": "mEg/kg dry wt"}, {"measurement": "WATER CONTENT", "setting": "[2]; BASAL GANGLIA (non-injured)", "value": "76 ± 1", "unit": "%"}, {"measurement": "SODIUM", "setting": "[2]; CEREBRAL CORTEX (injured)", "value": "271 ± 8", "unit": "mEg/kg dry wt"}, {"measurement": "WATER CONTENT", "setting": "[2]; CEREBRAL CORTEX (injured)", "value": "77 ± 4", "unit": "%"}, {"measurement": "effect on edema produced by serotonin, substance P, bradykinin, neurotensin, histamine", "setting": "edema of rat pawskin", "value": "antagonize the edema-producing properties"}, {"measurement": "Area", "setting": "[3]; [6]", "value": "505 ± 16", "unit": "mm^2"}, {"measurement": "Intensity", "setting": "[3]; [6]", "value": "2.0 ± 0.03", "unit": "arbitrary units"}, {"measurement": "Lesion Size", "setting": "[3]; [6]", "value": "1031 ± 44"}, {"measurement": "Area", "setting": "[3]; [7]", "value": "361 ± 18", "unit": "mm^2"}, {"measurement": "Intensity", "setting": "[3]; [7]", "value": "1.9 ± 0.05", "unit": "arbitrary units"}, {"measurement": "Lesion Size", "setting": "[3]; [7]", "value": "676 ± 47"}, {"measurement": "Area", "setting": "[3]; [8]", "value": "477 ± 31", "unit": "mm^2"}, {"measurement": "Intensity", "setting": "[3]; [8]", "value": "1.9 ± 0.03", "unit": "arbitrary units"}, {"measurement": "Lesion Size", "setting": "[3]; [8]", "value": "919 ± 51"}, {"measurement": "Area", "setting": "[3]; [9]", "value": "257 ± 3", "unit": "mm^2"}, {"measurement": "Intensity", "setting": "[3]; [9]", "value": "1.8 ± 0.05", "unit": "arbitrary units"}, {"measurement": "Lesion Size", "setting": "[3]; [9]", "value": "468 ± 19"}, {"measurement": "vascular leakage (lesion size) relative to that of the saline-treated group", "setting": "[3]; [6]", "value": 63, "unit": "%"}, {"measurement": "vascular leakage (lesion size) relative to that of the saline-treated group", "setting": "[3]; [7]", "value": 42, "unit": "%"}, {"measurement": "vascular leakage (lesion size) relative to that of the saline-treated group", "setting": "[3]; [9]", "value": 29, "unit": "%"}, {"measurement": "lesion size relative to that of the saline-treated group", "setting": "[3]; Table IV, CRF 30 μg/kg s.c. 2 hr before incision", "value": 59, "unit": "%"}, {"measurement": "effect on ACTH secretion", "setting": "ACTH secretion", "value": "stimulates ACTH release from pituitary cells"}, {"measurement": "Area", "setting": "[4]; [10]", "value": "188 ± 16", "unit": "mm^2"}, {"measurement": "Intesnity", "setting": "[4]; [10]", "value": "1.4 ± 0.05"}, {"measurement": "Lesion Size", "setting": "[4]; [10]", "value": "260 ± 26"}, {"measurement": "muscle lesion size relative to that of the saline-treated control group", "setting": "[4]; Table V, CRF 30 μg/kg s.c.", "value": 44, "unit": "%"}]}
